Test results: patent US20140056811A1, “NEW CELL-PENETRATING PEPTIDES AND USES THEREOF” (COMPUGEN LTD., priority 2010, published 2014)
“Also recorded” adds a separate entry of the source. Peptide text beside a SMILES is read from it. * marks the point of attachment. 5FAM = O=C1OC2(c3ccc(O)cc3Oc3cc(O)ccc32)c2ccc(C(=O)*)cc21; FAM = carboxyfluorescein

Assays:
Format in all cases: cell-based
A549 cells = assay: FACS binding analysis of CPP conjugated liposomes; conditions: FAM-CPP conjugated to hyaluronan coated liposomes, 30 minutes on ice
Procedure: Liposome preparation was carried out as described in Peer D., at al., 2008, Science 319, 627-630, Briefly, liposomes (60% soy-pc, 20% DPPE 20% cholesterol mol/mol) were prepared at a concentration of 40 mg/ml (Soy PC-273 mg, DPPE-81.2 mg Cholesterol-145.4 mg in 10 ml of ethanol). After a complete dissolvent, the solution was evaporated in a rotary evaporator (BUCHI R-210). Following the evaporation the dry lipid film was hydrated in 10 ml of HEPES (PH 7.4) and the solution was shaken (2 hr 65° C.). The MLV were reduced to ULV with an average size of ˜150 nm (Zetasizer Nano ZS system) by passing them through an extruder (Lipex) using filtration membranes in a serially manner ([…]). Average zeta potential of the ULV was −3 mV (Zetasizer Nano ZS system).
Hyaluronan (HA) (700 KDa Lifecore) was dissolved in 0.2M MES buffer (PH 5.5) to a final concentration of 5 mg/ml. HA was activate with EDC and solfo-NHS at a molar ratio of 1:1:6. After 30 min of activation the liposomes were added and the pH was adjusted to 7.4. The solution was incubated at room temp (2 hr). The free HA was removed by 3 repeated ultracentrifugations. The resulting HA-ULV's were at an average of 175 nm in size.
CPPs S22 (SEQ ID NO: 1), S24 (SEQ ID NO: 2) and S8 (SEQ ID NO: 6) and Control CPPs; 9R with additional C-terminal Lysine, 9R-K (SEQ ID NO: 40) and N2 (SEQ ID NO: 22), were dissolved to a concentration of 1 mg/ml. HA-ULV's (250 μl of 40 mg/ml) were activated with 1 ml of 0.4M EDC and 1 ml of 0.4 mM solfo-NHS. After 30 min the activated liposomes were divided into 5 test tubes (250 μl per each tube) and a different CPP (50 μl) was added. After incubation at RT for 2 hr, the CPP-HA-ULVS were dialyzed over night with PBS buffer (0.5 L/3 buffer changeovers) to remove unbound CPP, using dialysis bags with a cutoff 3500 Da.
For binding analysis, 3.5×10^5 cells were trypsinized, spin down, re-suspended with FACS buffer (1% fetal bovine serum in 1×PBS), incubated for 30 minutes on ice with different CPPs (Conjugated to FAM fluorophore) and washed with 1 ml FACS buffer.

HeLa cells [1] = assay: Flow cytometry (FACS) quantification of cellular uptake of FAM labeled peptides; conditions: FAM labeled peptide, 10 uM, 37° C., 1 hour, average of a number of experiments
Procedure: To determine the efficiency of peptide loading, HeLa cells (ATCC number CCL-2TM (Manassas, Va.) grown in DMEM medium with stabilized glutamine supplemented with 10% fetal calf serum (Biological Industries, Beit Haemek, Israel), were seeded at a density of 20,000 per well in 96 U shape-well plates (Nunc A/S, Roskilde, Denmark) in serum containing DMEM (D-Mem W/O Na Pyr, product number 41965039).
After 24 hours, the cells were washed twice with 300 μL serum free OptiMEM (Reduced Serum Media, buffered with HEPES and sodium bicarbonate and supplemented with hypoxanthine, thymidine, sodium pyruvate, L-glutamine, trace elements and growth factors) medium and incubated in 50 μL serum free OptiMEM, containing peptides in the appropriate concentrations for 1 hour at 37° C. Each condition was tested in triplicates. After incubation, cells were washed with serum free medium, detached by trypsinization for 5 minutes, suspended in ice-cold PBS (phosphate buffered saline) containing 0.1% (w/v) BSA (bovine serum albumin), and measured immediately by flow cytometry (BD FACS Calibur System, Becton Dickinson, Heidelberg, Germany). The fluorescence of approximately 10,000 vital cells was acquired and gated based on sideward and forward scatter. Peptides used as positive controls were Tat(47-57) (SEQ ID NO:19; Jain M, et al., Cancer Res. 2005 Sep. 1; 65(17):7840-6), 9R (SEQ ID NO:21; Mueller J, et al., Bioconjug Chem. 2008 December; 19(12):2363-74) and penetratin (SEQ ID NO:20; Mueller J, et al., Bioconjug Chem. 2008 December; 19(12):2363-74). Negative control peptides N2 (SEQ ID NO:22) and N5 (SEQ ID NO:23) were designed according to Handbook [Cell-Penetrating Peptides, Second Edition, Edited by Ülo Langel, CRC Press 2007, Print ISBN: 978-0-8493-5090-0] and [US Patent Application 20080234183].

NRK cell line = assay: Internalization assay of CPP conjugated liposomes by confocal microscopy; conditions: CPP conjugated to liposomes, 50 μl, 1 hour, 37° C.
Procedure: (§1) Internalization assay was performed in 24 well plates. A549 or NRK cells were seeded on cover slips in RPMI or DMEM medium respectively, supplemented with antibiotics, L-Glutamine and 10% fetal calf serum (Biological industries, Beit Haemek).
(§2) For membrane staining, cells were stained with CellTracker™ DilC18 (5)-DS solution (Invitrogen, Carlsbad, Calif., USA), diluted 1:5000 with PBS. For internalization experiments involve NPs Concanavalin A, Alexa fluor 647 conjugate (10 μg/ml) (C21421, Invitrogen,) was used to label cell membrane. For nuclei staining, cells were stained with Hoechst (1:10,000 in PBS) (33258, Sigma). Cells were exposed to CPPs only (10 μM) or CPP-liposome complex (50 μl from stock, according to preparation method) or liposome only (50 μl from the prepared liposomal stock solution) in medium without serum for a period of 1 hour at 37° C. in a humidified atmosphere with 5% CO2. Subsequently, the cells were washed twice using cold PBS, fixated with 4% Paraformaldehyde (PFA) and washed again with cold PBS. Membrane and nuclei staining were preformed after fixation. The cells were mounted by fluorescent mounting medium (Golden Bridge international, Mukilteo, Wash., USA) and fluorescent was measured using Andor Spinning disc confocal microscope and the Meta 510 Zeiss LSM confocal microscope. Laser beams at 405, 488, 561 and 650 nm were used for UV, FAM, Rhodamine, Concavaline A and CellTracker™, fluorophores excitation respectively. Serial optical sections of the cells were recorded for each treatment and the images were processed using Zeiss LSM Image browser software.

[2] = In vitro cytotoxicity by LDH (lactate dehydrogenase) analysis; conditions: human
Procedure: In order to assess the in vitro cytotoxicity of the peptides, an LDH (lactate dehydrogenase) analysis was carried out, using LDH kit (Promega G1782), according to manufacturer instructions.
Briefly, HeLa cells from 5 ml of confluent T75 flask were seed in 96 well plate at 10×10^4 cells/mL in 0.1 ml DMEM supplied with 10% Fetal Calf Serum. After 24 hrs incubation with growth medium, wells were replaced with Serum Free growth medium for 24 hrs, and then cells were washed with OptiMEM and replaced with 0.1 ml peptide solution at 10 uM for 1 h at 37° C. 50 ul of supernatant were transferred to the new plate and detected according to Cyto Tox 96, Non Radioactive cytotoxicity assay, (LDH kit Promega G1782). Table 5 presents the results of in vitro cytotoxicity measurements by LDH for S22, S24, S36 and S40 peptides and two positive control peptides; Tat(47-57) and R9. LDH experiment was done with fluorescent labeled (5-FAM) peptides in concentration of […] and the % of cytotoxicity was measured by LDH levels.

A549 cell line = assay: Internalization assay of CPP conjugated liposomes by confocal microscopy; conditions: CPP conjugated to liposomes, 50 μl, 1 hour, 37° C.
Procedure: as §1, §2

HeLa cells [3] = assay: Confocal microscopy of peptide membrane penetration and cellular distribution; conditions: 5 uM, 37° C.
Procedure: To determine qualitative validation of peptide membrane penetration, HeLa cells from 5 ml of confluent T75 flask were seed in 12 well plate at 10×10^4 cells/mL in 0.5 ml DMEM supplied with 10% Fetal Calf Serum. […] DiD (DiD-[1,1′-Dioctadecyl-3,3,3′,3′-tetramethylindodicarbocyanine iodide] Lipophilic membrane tracer) (5 ug/ml) was added to each well and incubated for 5 min at 4° C., washed twice with cold PBS and fixed with 3.7% PFA 20′ RT. Cells were rinsed with PBS and mounted on slides for confocal microscopy analysis.

Molecule | binding to A549 cells (FACS) (A549 cells) | Geometric mean of FL1 intensity (HeLa cells [1]) | internalization into NRK cell line (confocal) (NRK cell line) | cytotoxicity at 1 h, 10 µM [2] | internalization into A549 cell line (confocal) (A549 cell line) | accumulation of FAM labeled peptide inside the cell (confocal images) (HeLa cells [3])
RRRRRRRRRK [9R-K, positive control, 9R with additional C-terminal Lysine, reference compound] | high binding levels | – | – | – | – | –
KKLALYLLLAL ({FAM}-KKLALYLLLAL-NH2) [S67] | – | 27.9 | – | – | – | –
KPSARMLLLKGFGK [S8] | lower binding effect | 52.29 | weak internalization | – | – | –
CC[C@H](C)[C@H](NC(=O)[C@H](CCCNC(=N)N)NC(=O)[C@H](CCCNC(=N)N)NC(=O)[C@H](CS)NC(=O)[C@@H](NC(=O)[C@H](CCCCN)NC(=O)[C@H](CCCCN)NC(=O)c1ccc2c(c1)C(=O)OC21c2ccc(O)cc2Oc2cc(O)ccc21)[C@@H](C)O)C(=O)N[C@@H](CC(N)=O)C(=O)N[C@@H](Cc1ccc(O)cc1)C(=O)N[C@@H](CS)C(=O)N[C@@H](C)C(=O)N[C@@H](CC(C)C)C(=O)N[C@@H](CC(N)=O)C(=O)N[C@@H](CCCCN)C(N)=O [S22, KKTCRRINYCALNK] (5FAM-KKTCRRINYCALNK-NH2; N-terminus and C-terminus assumed) | high binding levels | 206.4275 | weak internalization; also recorded: better penetration into NRK in a comparison with peptide only | 7% | significant internalization effect | strong cell membrane penetration capability; also recorded: efficient cellular uptake and intracellular accumulation
VATIKSVSFYTRK [N2, negative control peptide, reference compound] | lower binding effect | – | – | – | did not show internalization effect | –
